Data: BindingDB's records for patent US10487086 (Bristol Myers Squibb, 2019)

Target: Coagulation factor XI (Homo sapiens, UniProt P03951)
Experiment: Factor XIa assay
Protocol: The effectiveness of compounds of the present invention as inhibitors of the coagulation Factors XIa, VIIa, IXa, Xa, XIIa, plasma kallikrein or thrombin, can be determined using a relevant purified serine protease, respectively, and an appropriate synthetic substrate. The rate of hydrolysis of the chromogenic or fluorogenic substrate by the relevant serine protease was measured both in the absence and presence of compounds of the present invention. […] A decrease in the rate of absorbance or fluorescence change in the presence of inhibitor is indicative of enzyme inhibition. Such methods are known to one skilled in the art. […] Determinations were made using purified human Factor XIa at a final concentration of 25-200 pM (Haematologic Technologies) and the synthetic substrate S-2366 (pyroGlu-Pro-Arg-pNA; CHROMOGENIX or AnaSpec) at a concentration of 0.0002-0.001 M.

Coagulation factor XI, sequence (P03951 19-387 limits assumed): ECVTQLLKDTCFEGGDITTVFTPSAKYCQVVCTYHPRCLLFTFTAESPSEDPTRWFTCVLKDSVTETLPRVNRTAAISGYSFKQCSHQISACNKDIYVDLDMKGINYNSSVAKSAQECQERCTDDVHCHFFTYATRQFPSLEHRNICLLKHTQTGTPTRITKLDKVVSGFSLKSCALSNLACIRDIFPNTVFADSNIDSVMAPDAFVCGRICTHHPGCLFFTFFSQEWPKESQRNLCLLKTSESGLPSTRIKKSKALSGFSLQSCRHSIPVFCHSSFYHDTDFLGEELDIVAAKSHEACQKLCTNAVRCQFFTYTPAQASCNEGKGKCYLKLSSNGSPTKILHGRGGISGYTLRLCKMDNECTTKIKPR
Coagulation factor XI, sequence (P03951 388-625 limits assumed): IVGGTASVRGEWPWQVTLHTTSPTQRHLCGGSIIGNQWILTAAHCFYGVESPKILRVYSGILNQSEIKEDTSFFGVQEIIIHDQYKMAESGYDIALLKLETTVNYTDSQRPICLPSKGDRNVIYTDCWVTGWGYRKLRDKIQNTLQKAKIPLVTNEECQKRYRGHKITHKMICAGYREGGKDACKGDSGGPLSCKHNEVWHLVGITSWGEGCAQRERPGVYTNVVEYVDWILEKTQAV

Question: How did the Ki turn out when `COC(=O)Nc1ccc2c(c1)N[C@@H](C(=O)O)CCCC[C@H](NC(=O)/C=C/c1cc(Cl)ccc1-n1cnnn1)c1nc-2c[nH]1` [US10487086, Example I-84] was run?
Answer: 580 nM
